Like-named read-outs stand apart in the source and are kept apart here. One block for each compound: values may come before it.
Legend:
[1] = system: OCI-LY10 human diffuse large B-cell lymphoma NOD-SCID mouse subcutaneous xenograft tumor model; assay: Efficacy in OCI-LY10 subcutaneous xenograft tumor model; format: in vivo, NOD-SCID mice; settings: for TGI(%): by tumor weight
From the text: Efficacy evaluation in OCI-LY10 human diffuse large B-cell lymphoma NOD-SCID mouse subcutaneous xenograft tumor model • (1) SPF female NOD-SCID mice (source: Jiangsu Huachuang Xinnuo Pharmaceutical Technology Co., Ltd.) were inoculated subcutaneously at the right side armpit with OCI-LY10 human diffuse large B-cell lymphoma cells at 1 × 10^7 cells/mouse. When the mean tumor volume reached about 200 mm^3, the animals were divided into a control group (vehicle control group) and treatment groups (compound groups).
The administration dose included 1 mg/kg, 2 mg/kg, and 4 mg/kg, and the administration frequency was once daily. The day of grouping was defined as day 0, and intragastric administration was started on day 0 for 21 consecutive days.
Alternatively, the administration dose was 4 mg/kg, and the administration frequency was 5 times per week. The day of grouping was defined as day 0, and intragastric administration was started on day 0 five times per week for two consecutive weeks.
The tumor volume was measured once every 3 days, and meanwhile, the mice were weighed and the data were recorded; the general behavior of the mice was observed and recorded every day. After the experiment was completed, the tumors were removed, weighed, and photographed.
The detection index and the calculation formula are as follows: • Tumor volume TV (mm^3) = 1/2 × (a × b^2), wherein a is the long diameter of the tumor, and b is the short diameter of the tumor; • Relative tumor volume RTV = TVt/TV0, wherein TV0 is the tumor volume on day 0, and TVt is the tumor volume at each measurement; • Relative tumor proliferation rate T/C (%) = (TRTV/CRTV) × 100%, wherein TRTV is RTV of the treatment group, and CRTV is RTV of the vehicle control group; • Tumor growth inhibition rate TGI (%) = (1 - TW/TW0) × 100%; wherein TW is the tumor weight of the treatment group, and TW0 is the tumor weight of the vehicle control group; • Weight change rate WCR (%) = (Wtt - Wt0)/Wt0 × 100%, wherein Wt0 is the body weight of the mouse on day 0, and Wtt is the body weight of the mouse at each measurement.

[2] = In vitro liver microsomal stability, human; format: in vitro ADME; settings: human liver microsome 0.5 mg/mL, NADPH, 37 °C, 1 h
Procedure: (§1) Liver microsome incubation samples were prepared by mixing a PBS buffer (pH = 7.4), a liver microsome solution (0.5 mg/mL), a test compound, and an NADPH + MgCl2 solution, and incubated at 37 °C and 300 rpm for 1 h. Zero-hour samples were prepared by mixing a PBS buffer (pH = 7.4), a liver microsome solution (0.5 mg/mL), and a test compound. An acetonitrile solution containing an internal standard was added to the samples, and supernatants were prepared by protein precipitation, diluted, and then assayed by LC/MS/MS. Table 17. In vitro metabolic stability of related compounds in liver microsomes of various species

[3] = In vitro liver microsomal stability, mouse; format: in vitro ADME; settings: mouse liver microsome 0.5 mg/mL, NADPH, 37 °C, 1 h
Procedure: as §1

Jurkat cells = assay: Inhibitory activity on Jurkat cell proliferation (CCK-8); format: cell-based; settings: Homo sapiens, 72 h incubation
Procedure: (§2) Jurkat cells in a good growth state were collected into a centrifuge tube, adjusted to a cell density of 5 × 10^4 cells/mL, and seeded in a 96-well plate (100 µL/well). The cells were incubated overnight in a cell incubator. Compounds were added using a nanoliter pipettor such that the final concentrations of the compounds were 1000 nM-0.46 nM (the addition was performed in duplicate). Meanwhile, a control was set. After another 72 h of incubation in the cell incubator, the assay reagent CCK-8 (manufacturer: Dojindo Laboratories, Beijing; 10 µL/well) was added. After 2 h of incubation in the cell incubator, absorbance was measured at 450 nm on an Envision microplate reader. A four-parameter analysis was performed, a dose-response curve was fit, and IC50 was calculated.

OCI-LY10 cells = assay: Inhibitory activity on OCI-LY10 cell proliferation (CCK-8); format: cell-based; settings: Homo sapiens, 72 h incubation
Procedure: as §2, with “OCI-LY10 cells” for “Jurkat cells”, “of 9” for “of 5”

Mouse pharmacokinetics [4] = format: in vivo, ICR mice; settings: ICR, plasma
Mouse pharmacokinetics [5] = format: in vivo; settings: ICR, plasma, po, 3 mg/kg, Mice administered intragastrically 3 mpk
Procedure: ICR mice weighing 18-22 g were randomized into groups of 9 mice per group after 3-5 days of acclimatization and then administered intragastrically at a dose of 3 mg/kg.
Plasma samples to be tested were prepared by taking blood from the orbit at time points of 15 min, 30 min, 1 h, 2 h, 4 h, 6 h, 8 h, 10 h, and 24 h.
20 µL of each plasma sample to be tested and a standard curve sample were taken, and an acetonitrile solution containing an internal standard was added. A supernatant was obtained by protein precipitation, diluted, and then assayed by LC/MS/MS.
Pharmacokinetic parameters were fitted using a non-compartmental model.

[6] = Table 19, 4mg/kg intragastric, Day 21 of assay
[7] = Table 19, 2mg/kg intragastric, Day 21 of assay
[8] = 1 mg/kg, Mice administered by single intravenous injection 1 mpk
[9] = Table 20, 4mg/kg intragastric, Day 18 of assay

Weight change rate (%) (mean ± SD) ([1]; Table 19, 4mg/kg intragastric, Day 23 of assay): 1.7±5.3% | Human liver microsome Residuals at 60 min (%) [2]: 110.48% | Mouse liver microsome Residuals at 60 min (%) [3]: 94.66% | IC50 (Jurkat cells): ≤ 20 nM | IC50 (OCI-LY10 cells): ≤ 40 nM
SMILES: NC(=O)/C(=C/n1cnc(-c2cc(C(F)(F)F)nc(C(F)(F)F)c2)n1)c1cnc2cccnc2c1 [25(25-A)]
RTV (mean±SD) [1, 6]: 1.8±0.6 | T/C(%) [1, 6]: 16.7% | TV(mm^3) (mean±SD) [1, 6]: 360±105 mm^3 | TGI(%) ([1]; Table 19, 4mg/kg intragastric, Day 23 of assay, * p < 0.05 vs control): 91.1%*

Weight change rate (%) (mean ± SD) ([1]; Table 19, 2mg/kg intragastric, Day 23 of assay): -2.0±6.5% | AUC(0-inf) (Mouse pharmacokinetics [4]; [8]): 1630 ng·h/mL | clearance (Mouse pharmacokinetics [4]; [8]): 10.2 mL/min/kg | half-life (Mouse pharmacokinetics [4]; [8]): 3.02 h | AUC(0-t) (Mouse pharmacokinetics [4]; 1 mg/kg, Mice administered by single intravenous injection 1 mpk, read-out: AUC (0-24)): 1630 ng·h/mL | AUC(0-inf) (Mouse pharmacokinetics [4]; po, 3 mg/kg, Mice administered intragastrically 3 mpk): 4760 ng·h/mL | Human liver microsome Residuals at 60 min (%) [2]: 94.26% | Mouse liver microsome Residuals at 60 min (%) [3]: 99.28% | Cmax (Mouse pharmacokinetics [5]): 871 ng/mL | Tmax (Mouse pharmacokinetics [5]): 1 h | half-life (Mouse pharmacokinetics [5]): 2.35 h | AUC(0-t) (Mouse pharmacokinetics [5]; read-out: AUC (0-24)): 4750 ng·h/mL
SMILES: Cc1ccc(/C(=C\n2cnc(-c3cc(C(F)(F)F)nc(C(F)(F)F)c3)n2)C(N)=O)cn1 [21(21-A)]
RTV (mean±SD) [1, 7]: 2.4±0.4 | T/C(%) [1, 7]: 22.2% | TV(mm^3) (mean±SD) [1, 7]: 520±178 mm^3 | TGI(%) ([1]; Table 19, 2mg/kg intragastric, Day 23 of assay, * p < 0.05 vs control): 89.3%*

Weight change rate (%) (mean ± SD) ([1]; Table 20, 4mg/kg intragastric, Day 21 of assay): 0.6±8.1% | Human liver microsome Residuals at 60 min (%) [2]: 86.18% | Mouse liver microsome Residuals at 60 min (%) [3]: 89.63% | IC50 (Jurkat cells): ≤ 20 nM | IC50 (OCI-LY10 cells): ≤ 40 nM
SMILES: NC(=O)/C(=C/n1cnc(-c2cc(C(F)(F)F)nc(C(F)(F)F)c2)n1)c1cnc2ccccc2c1 [11(11-A)]
RTV (mean±SD) [1, 9]: 1.7±0.2 | T/C(%) [1, 9]: 21.8% | TV(mm^3) (mean±SD) [1, 9]: 326±52 mm^3 | TGI(%) ([1]; Table 20, 4mg/kg intragastric, Day 21 of assay, ** p < 0.01 vs control): 89.7%**
